Reference: patent US20250122147A1, “ARYL CYCLOHEXANEDIONE DERIVATIVE OR SALT THEREOF, PEST CONTROL AGENT CONTAINING SAME, AND METHOD FOR USE THEREOF” (ADEKA Corporation, priority 2021, published 2025)

Tested on: Plutella xylostella
Test: Insecticidal test against Plutella xylostella
Conditions: 500 ppm drug solution; Chinese cabbage seedlings with eggs immersed about 30 sec; six days after immersion; 25° C.
From the text: Six days after the immersion in the drug solution, the number of surviving insects was examined. […] In triplicate using 10 per plot.

Cc1ccc(C2CC(=O)C(C(=O)Nc3ccc(F)cc3)=C(O)C2)cc1 (centres unmarked) [1-63]
corrected mortality, rating of assessment: D or higher

CC(=O)c1ccc(NC(=O)C2=C(O)CC(c3ccc(C(F)(F)F)cc3)CC2=O)cc1 (centres unmarked) [1-36]
corrected mortality, rating of assessment: D or higher

O=C1CC(c2ccc(C(F)(F)F)cc2)CC(O)=C1C(=O)Nc1ccc(F)cc1F (centres unmarked) [1-17]
corrected mortality, rating of assessment: D or higher

CS(=O)(=O)c1ccc(C2CC(=O)C(C(=O)Nc3ccc(F)cc3)=C(O)C2)cc1 (centres unmarked) [1-210]
corrected mortality, rating of assessment: D or higher

CS(=O)(=O)c1ccc(C2CC(=O)C(C(=O)Nc3ccc(Cl)cc3)=C(O)C2)cc1 (centres unmarked) [1-232]
corrected mortality, rating of assessment: D or higher

N#Cc1cccc(NC(=O)C2=C(O)CC(c3ccc(C(F)(F)F)cc3)CC2=O)c1 (centres unmarked) [1-34]
corrected mortality, rating of assessment: D or higher

N#Cc1ccc(C2CC(=O)C(C(=O)Nc3ccc(F)cc3)=C(O)C2)cc1 (centres unmarked) [1-61]
corrected mortality, rating of assessment: D or higher

N#Cc1ccc(NC(=S)C2=C(O)CC(c3ccc(C(F)(F)F)cc3)CC2=O)cc1 (centres unmarked) [1-100]
corrected mortality, rating of assessment: D or higher

O=C1CC(c2ccc(C(F)(F)F)cc2)CC(O)=C1C(=O)NC1CC1 (centres unmarked) [1-144]
corrected mortality, rating of assessment: D or higher

O=C1CC(c2ccc(OC(F)(F)F)cc2)CC(O)=C1C(=O)Nc1ccc(F)cc1 (centres unmarked) [1-65]
corrected mortality, rating of assessment: D or higher

C[S+]([O-])c1ccc(C2CC(=O)C(C(=O)Nc3ccc(Cl)cc3)=C(O)C2)cc1 (centres unmarked) [1-233]
corrected mortality, rating of assessment: D or higher

Cn1ccc(NC(=O)C2=C(O)CC(c3ccc(C(F)(F)F)cc3)CC2=O)n1 (centres unmarked) [1-167]
corrected mortality, rating of assessment: D or higher

O=C1CC(c2ccc(C(F)(F)F)cc2)CC(O)=C1C(=S)Nc1cccc(C(F)(F)F)c1 (centres unmarked) [1-99]
corrected mortality, rating of assessment: D or higher

O=C1CC(c2ccc(C(F)(F)F)cc2)CC(O)=C1C(=O)Nc1ccc2c(c1)OCO2 (centres unmarked) [1-55]
corrected mortality, rating of assessment: D or higher

O=C1CC(c2ccc(C(F)(F)F)cc2)CC(O)=C1C(=O)Nc1ccc(S(=O)(=O)C(F)(F)F)cc1 (centres unmarked) [1-53]
corrected mortality, rating of assessment: D or higher

O=C1CC(c2ccc(C(F)(F)F)nc2)CC(O)=C1C(=O)Nc1ccc(Cl)cc1 (centres unmarked) [1-71]
corrected mortality, rating of assessment: D or higher

O=C1CC(c2ccc(C(F)(F)F)cc2)CC(O)=C1C(=O)Nc1ncc(F)cn1 (centres unmarked) [1-155]
corrected mortality, rating of assessment: D or higher

O=C1CC(c2ccc(SC(F)(F)F)cc2)CC(O)=C1C(=O)Nc1ccc(F)cc1 (centres unmarked) [1-213]
corrected mortality, rating of assessment: D or higher

O=C1CC(c2ccc(C(F)(F)F)cc2)CC(O)=C1C(=S)Nc1ccc(F)cc1 (centres unmarked) [1-81]
corrected mortality, rating of assessment: D or higher

O=C1CC(c2ccc([N+](=O)[O-])cc2)CC(O)=C1C(=O)Nc1ccc(F)cc1 (centres unmarked) [1-207]
corrected mortality, rating of assessment: D or higher

O=C1CC(c2ccc(C(F)(F)F)cc2)CC(O)=C1C(=O)Nc1cccc(F)c1 (centres unmarked) [1-43]
corrected mortality, rating of assessment: D or higher

C[S+]([O-])c1ccc(C2CC(=O)C(C(=O)Nc3ccc(F)cc3)=C(O)C2)cc1 (centres unmarked) [1-212]
corrected mortality, rating of assessment: D or higher

O=C1CC(c2ccc(C(F)(F)F)cc2)CC(O)=C1C(=S)Nc1cccc(F)c1 (centres unmarked) [1-95]
corrected mortality, rating of assessment: D or higher

O=C1CC(c2ccc(C(F)(F)F)cc2)CC(O)=C1C(=O)NC1CCCCC1 (centres unmarked) [1-11]
corrected mortality, rating of assessment: D or higher

O=C1CC(c2ccc(C(F)(F)F)cc2)CC(O)=C1C(=O)Nc1ccc(F)nn1 (centres unmarked) [1-162]
corrected mortality, rating of assessment: D or higher

O=C1CC(c2ccc(C(F)(F)F)cc2)CC(O)=C1C(=O)Nc1ccccc1F (centres unmarked) [1-38, N-(2-fluorophenyl)-5-hydroxy-3-oxo-4′-(trifluoromethyl)-1,2,3,6-tetrahydro-[1,1′-biphenyl]-4-carboxamide]
corrected mortality, rating of assessment: D or higher
